According to publication PMC11464693 (Nature Communications, 2024):

Legend:
laccase (Lac) = molecular target: T1, laccase (Lac) (Bacillus subtilis, UniProt P07788); assay: ABTS oxidation at […] nm, whole cells; format: cell-based; conditions: 5 mM ABTS, 37 °C, pH optimum 5.0; surface-displayed enzyme
T1 sequence (P07788 1-513): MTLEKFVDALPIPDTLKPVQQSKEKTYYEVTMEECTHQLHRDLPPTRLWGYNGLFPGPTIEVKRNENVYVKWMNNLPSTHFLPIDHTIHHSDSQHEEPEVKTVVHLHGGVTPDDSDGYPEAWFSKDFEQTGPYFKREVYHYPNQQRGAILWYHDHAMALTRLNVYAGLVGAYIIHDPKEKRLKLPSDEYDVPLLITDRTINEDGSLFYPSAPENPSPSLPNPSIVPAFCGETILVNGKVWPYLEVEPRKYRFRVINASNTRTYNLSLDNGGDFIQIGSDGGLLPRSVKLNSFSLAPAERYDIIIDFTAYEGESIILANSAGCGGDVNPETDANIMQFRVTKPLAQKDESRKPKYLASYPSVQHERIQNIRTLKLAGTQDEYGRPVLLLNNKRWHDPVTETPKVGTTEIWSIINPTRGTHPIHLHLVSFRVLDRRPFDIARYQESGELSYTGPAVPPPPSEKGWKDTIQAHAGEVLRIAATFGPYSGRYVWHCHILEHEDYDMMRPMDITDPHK

XylD = molecular target: T2, XylD (Caulobacter vibrioides, UniProt A0A0H3C6H6); assay: semicarbazone assay at […] nm; format: biochemical; conditions: 37 °C
T2 sequence (A0A0H3C6H6 1-591): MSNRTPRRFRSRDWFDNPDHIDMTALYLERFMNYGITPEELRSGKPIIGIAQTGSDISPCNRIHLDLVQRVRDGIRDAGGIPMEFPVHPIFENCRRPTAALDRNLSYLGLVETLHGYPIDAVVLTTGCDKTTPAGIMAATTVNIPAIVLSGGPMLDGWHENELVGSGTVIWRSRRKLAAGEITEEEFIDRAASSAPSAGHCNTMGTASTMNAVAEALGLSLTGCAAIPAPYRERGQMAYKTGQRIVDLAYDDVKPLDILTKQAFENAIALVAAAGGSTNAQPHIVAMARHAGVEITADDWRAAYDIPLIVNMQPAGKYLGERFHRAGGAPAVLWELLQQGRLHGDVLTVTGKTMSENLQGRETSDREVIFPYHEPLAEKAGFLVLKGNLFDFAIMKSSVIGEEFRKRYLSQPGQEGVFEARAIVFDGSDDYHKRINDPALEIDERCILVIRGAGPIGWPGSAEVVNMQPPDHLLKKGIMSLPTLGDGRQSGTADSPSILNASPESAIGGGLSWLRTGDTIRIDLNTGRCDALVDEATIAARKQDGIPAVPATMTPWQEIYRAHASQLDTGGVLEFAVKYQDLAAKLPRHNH

XDH = molecular target: T3, XDH (Caulobacter vibrioides, UniProt B8H1Z0); assay: NADH formation at […] nm; format: biochemical; conditions: 10 mM D-xylose, 1 mM NAD+, 37 °C
T3 sequence (B8H1Z0 1-248): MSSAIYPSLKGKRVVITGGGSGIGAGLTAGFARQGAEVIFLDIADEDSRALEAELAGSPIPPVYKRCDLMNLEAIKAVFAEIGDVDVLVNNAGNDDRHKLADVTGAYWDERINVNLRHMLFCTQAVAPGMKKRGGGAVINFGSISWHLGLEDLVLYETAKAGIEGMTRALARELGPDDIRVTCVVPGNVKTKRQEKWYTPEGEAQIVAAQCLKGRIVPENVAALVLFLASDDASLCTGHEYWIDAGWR

KGSADH = molecular target: T4, KGSADH (Caulobacter vibrioides, UniProt A0A0H3C801); assay: NADH formation at […] nm; format: biochemical
T4 sequence (A0A0H3C801 1-478): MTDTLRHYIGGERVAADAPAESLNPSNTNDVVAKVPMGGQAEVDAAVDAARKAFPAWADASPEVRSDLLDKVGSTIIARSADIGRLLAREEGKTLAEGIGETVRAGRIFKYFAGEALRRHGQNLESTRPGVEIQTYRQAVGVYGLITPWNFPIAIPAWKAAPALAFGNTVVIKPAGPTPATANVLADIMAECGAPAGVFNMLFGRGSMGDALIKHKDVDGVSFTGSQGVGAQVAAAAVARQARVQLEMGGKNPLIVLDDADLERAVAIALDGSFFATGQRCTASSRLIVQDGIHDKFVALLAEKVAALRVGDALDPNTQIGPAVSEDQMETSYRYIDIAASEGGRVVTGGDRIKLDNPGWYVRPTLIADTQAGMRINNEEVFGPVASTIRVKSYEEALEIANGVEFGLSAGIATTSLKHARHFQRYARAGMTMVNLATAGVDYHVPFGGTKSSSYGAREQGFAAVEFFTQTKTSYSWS

XylC = XylC (Caulobacter vibrioides, UniProt A0A0H3C6P8); assay: decrease of p-nitrophenol absorbance at […] nm; format: biochemical; conditions: spontaneous hydrolysis controlled
Chain of XylC (A0A0H3C6P8 1-289): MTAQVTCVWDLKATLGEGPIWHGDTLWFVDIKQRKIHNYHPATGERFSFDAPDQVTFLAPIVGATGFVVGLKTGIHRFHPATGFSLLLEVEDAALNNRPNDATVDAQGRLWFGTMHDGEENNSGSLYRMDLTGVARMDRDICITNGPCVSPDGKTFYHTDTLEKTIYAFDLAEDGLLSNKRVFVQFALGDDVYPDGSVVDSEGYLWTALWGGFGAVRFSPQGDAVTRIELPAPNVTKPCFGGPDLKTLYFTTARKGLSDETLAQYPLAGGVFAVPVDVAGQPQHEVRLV

CCn1c(=NN=c2sc3cc(S(=O)(=O)O)ccc3n2CC)sc2cc(S(=O)(=O)O)ccc21 [ABTS, 2,2’-azino-bis (3-ethylbenzothiazoline-6-sulfonic acid)]
ABTS oxidation at 420 nm, whole cells (laccase (Lac)): The oxidation activity of E. coli-Lac towards ABTS was calibrated by measuring the absorbance

O=C(O)[C@H](O)[C@@H](O)[C@H](O)CO [D-xylonic acid]
semicarbazone assay at 250 nm (XylD): D-xylonic acid would be transformed into 2-keto-3-deoxyxylic acid by XylD

OC1OC[C@@H](O)[C@H](O)[C@H]1O (stereo partly drawn) [D-xylose]
NADH formation at 340 nm (XDH): D-xylose is oxidized into D-xylono-lactone and generates NADH catalyzed by XDH

NC(=O)c1ccc[n+]([C@@H]2O[C@H](COP(=O)(O)OP(=O)(O)OC[C@H]3O[C@@H](n4cnc5c(N)ncnc54)[C@H](O)[C@@H]3O)[C@@H](O)[C@H]2O)c1 [NAD^+]
NADH formation at 340 nm (KGSADH; glutaraldehyde as substrate): activity of KGSADH by following the rate of NAD^+ reduction
NADH formation at 340 nm (XDH): catalyzed by XDH using NAD^+ as coenzyme

O=CCCCC=O [glutaraldehyde]
NADH formation at 340 nm (KGSADH; NAD+, substitute substrate): monitored by measuring the generation of NADH using analogous glutaraldehyde as substrate

O=C1O[C@H](CO)[C@H](O)[C@H]1O [xylono-1,4-lactone]
decrease of p-nitrophenol absorbance at 405 nm (XylC): To examine the activity of XylC, D-xylono-lactone was used as substrate to produce D-xylonic acid
